In US7915293B2, “Ubiquitin ligase inhibitors” (Rigel Pharmaceuticals, Inc., priority 2003, dated 2011):

Key:
Parameters in all cases: key: “+” indicates that the compound exibits inhibitory activity; “−” indicates that low or no inhibitory activity was observed
[1] = target: E3 (His-APC11/APC2-"APC") (Homo sapiens, UniProt Q9NYG5+Q9UJX6); assay: Plate-based E3 ligase assay (APC FLAG), auto-ubiquitination; format: biochemical; conditions: 8 concentrations tested
In short: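 His-APC11/APC2 auto-ubiquitination was run in casein-blocked nickel plates for 1 h at room temperature, with E1 at 5 ng/well, UbcH5c at 20 ng/well and APC at 100 ng/well. Buffer was 62.5 mM Tris pH 7.6, 3 mM MgCl2, 1 mM DTT, 2.5 mM ATP and Flag-ubiquitin at 100 ng/well. Detection used anti-Flag/HRP chemiluminescence, and IC50 was typically from 6 or 8 concentrations versus a DMSO control.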

A549 cells [2] = assay: Cell proliferation assay, photographic image analysis of proliferation, apoptosis and death (PAD assay), A549; format: cell-based; conditions: 6 concentrations tested
In short: (§1)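 Cells grown in RPMI with 5% FBS (2,000/well) and dosed 24 h after plating with 6.3-fold dilutions in duplicate (master plate 500× final, top 10 mM stock). After 48 h at 37 °C, cells formamide-fixed and DAPI-stained. Image analysis counted live, apoptotic and dead cells.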

A549 cells [3] = assay: Non-photographic proliferation analysis (Promega Cell titer Aqueous), A549; format: cell-based; conditions: 6 concentrations tested
Description: (§2) A549 (ATCC# CCL-185), HeLa (ATCC# CCL-2), HCT116 (ATCC# CCL-247), and H1299 (ATCC# CRL-5803) cells were maintained in T175 flasks following the ATCC recommended media and handling procedures. Flasks reaching approximately 70% confluency were trypsinized and resuspended in RPMI media (Cell-Gro catalog number 10-040-CM) modified to contain 5% FBS, 100 ug/mlPen/Strep (Cell-Gro catalog number 30-002-CL), and 0.3 mg/ml L-Glutamine (Cell-Gro catalog number 25-003-CL). A 20,000 cells/ml solution was made for plating. Cells were plated in black Packard 96 well plates by placing 100 μl per well (2,000 cells per well).
(§3) Compounds and additional media were added 24 hours after cell plating. A compound master plate was created with concentrations 500 times greater than the final concentration added to the cells. All compound testing was done in duplicate using 6.3 fold dilutions starting with 10 mM. All outside wells (and 4 internal wells) were DMSO controls. Taxol and at least one additional control were run on all plates. Three microliters of the compound master plate were added to deep well blocks containing 750 μl of RPMI media. One hundred microliters were transferred from the compound/media deep well blocks to the plated cells resulting in a 500 fold dilution of the compounds. Cells were grown at 37° C., 5% CO2 for 48 hours.
(§4) Some cell plates were treated with Promega Cell titer Aqueous 1 kit (promega—VWR catalog number G3580). In this case, 48 hours after the test compound were added, 100 μl of media were removed and 20 μl of cell titer reagent were added to all wells. Plates were incubated at 37° C. for 45 minutes prior to absorbance reads on the Wallac plate reader at 490 nm for 0.1 sec/well.

HeLa cells [4] = assay: Non-photographic proliferation analysis (Promega Cell titer Aqueous), HeLa; format: cell-based; conditions: 6 concentrations tested
Description: as §2, §3, §4

HCT116 cells [5] = assay: Non-photographic proliferation analysis (Promega Cell titer Aqueous), HCT116; format: cell-based; conditions: 6 concentrations tested
Description: as §2, §3, §4

HeLa cells [6] = assay: Cell proliferation assay, photographic image analysis of proliferation, apoptosis and death (PAD assay), HeLa; format: cell-based; conditions: 6 concentrations tested
In short: as §1

HCT116 cells [7] = assay: Cell proliferation assay, photographic image analysis of proliferation, apoptosis and death (PAD assay), HCT116; format: cell-based; conditions: 6 concentrations tested
Description: as §2, §3
Cells to be analyzed by photography were fixed and stained. One hundred microliters of media were removed and 100 μl of 9.3% […] was added to each well. Plates were left on the benchtop for 45 minutes. A staining solution containing 1.55 μl of 1 mg/ml DAPI added to 18.75 ml PBS was warmed for 15 minutes at 37° C. The cells were aspirated prior to washing with 100 μl of PBS. Seventy microliters of PBS were aspirated and 170 μl of the DAPI solution were added to each well of fixed cells. Plates were left at room temperature for one hour then aspirated and washed twice with 100 μl of PBS. The stained cells were left at 4° C. for a minimum of 16 hours before photographic analysis with Array Scan II (Cellomics). Analysis of the photographic images to determine numbers of live cells (proliferation), apoptotic cells and dead cells, were according to the methods described in U.S. Provisional Patent Application Ser. No. 60/406,714, which incorporated herein in its entirety.

E3 (His-APC11/APC2-"APC"), sequence (Q9NYG5 whole entry): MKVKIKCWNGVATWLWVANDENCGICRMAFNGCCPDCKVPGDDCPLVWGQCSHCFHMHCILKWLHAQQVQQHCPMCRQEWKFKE
E3 (His-APC11/APC2-"APC"), sequence (Q9UJX6 whole entry): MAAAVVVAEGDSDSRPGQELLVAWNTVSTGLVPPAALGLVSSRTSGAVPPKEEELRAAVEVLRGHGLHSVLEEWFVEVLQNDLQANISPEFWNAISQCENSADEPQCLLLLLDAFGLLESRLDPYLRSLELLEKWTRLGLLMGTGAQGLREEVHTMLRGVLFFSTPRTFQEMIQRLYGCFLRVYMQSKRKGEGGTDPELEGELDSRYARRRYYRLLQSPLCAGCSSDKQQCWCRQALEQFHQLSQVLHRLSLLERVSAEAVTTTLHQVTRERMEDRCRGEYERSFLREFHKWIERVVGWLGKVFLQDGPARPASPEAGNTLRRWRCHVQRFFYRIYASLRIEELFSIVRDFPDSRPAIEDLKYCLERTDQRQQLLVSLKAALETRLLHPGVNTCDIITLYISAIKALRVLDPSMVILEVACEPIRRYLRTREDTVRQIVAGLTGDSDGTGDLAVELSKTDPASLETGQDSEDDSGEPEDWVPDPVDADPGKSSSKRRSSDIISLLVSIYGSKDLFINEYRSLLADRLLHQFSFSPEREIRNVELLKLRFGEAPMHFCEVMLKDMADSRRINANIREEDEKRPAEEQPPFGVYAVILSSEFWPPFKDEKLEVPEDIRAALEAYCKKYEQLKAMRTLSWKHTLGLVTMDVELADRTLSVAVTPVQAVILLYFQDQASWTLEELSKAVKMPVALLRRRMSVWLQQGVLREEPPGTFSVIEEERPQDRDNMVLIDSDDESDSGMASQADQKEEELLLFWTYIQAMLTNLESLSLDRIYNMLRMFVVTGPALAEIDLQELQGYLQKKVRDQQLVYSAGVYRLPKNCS

SMILES | APC Flag 8 pt [1] | PAD Assay, A549 6 pt (A549 cells [2]) | Cell Titer-Aqueous, A549 6 pt (A549 cells [3]) | Cell Titer-Aqueous, HELA 6 pt (HeLa cells [4]) | Cell Titer-Aqueous, HCT116 6 pt (HCT116 cells [5]) | PAD Assay, HELA 6 pt (HeLa cells [6]) | PAD Assay, HCT116 6 pt (HCT116 cells [7])
O=[N+]([O-])c1ccc(Oc2c(Cl)cc(S(=O)(=O)Nc3ccc(F)c(Cl)c3)cc2Cl)c(Cl)c1 [Example 16, 3,5-dichloro-N-(3-chloro-4-fluorophenyl)-4-(2-chloro-4-nitrophenoxy)benzene-sulfonamide] | + | − | + | + | + |  | 
Cc1cccc(C)c1N(S(=O)(=O)c1cc(Cl)c(Oc2ccc([N+](=O)[O-])cc2Cl)c(Cl)c1)S(=O)(=O)c1cc(Cl)c(Oc2ccc([N+](=O)[O-])cc2Cl)c(Cl)c1 [Example 145, 3,5-dichloro-4-(2-chloro-4-nitrophenoxy)-N-(2,6-dimethylphenyl)-N-(1,3-dichloro-2-(2-chloro-4-nitrophenoxy)5-sulfonylbenzene)benzenesulfonamide] | + |  | − | − | − |  | 
Cc1c(Cl)cccc1NS(=O)(=O)c1cc(Cl)c(Oc2ccc([N+](=O)[O-])cc2Cl)c(Cl)c1 [Example 147, 3,5-dichloro-N-(3-chloro-2-methylphenyl)-4-(2-chloro-4-nitrophenoxy)benzene-sulfonamide] | + | + | + | + | + | + | 
COc1ccc(NS(=O)(=O)c2cc(Cl)c(Oc3ccc([N+](=O)[O-])cc3Cl)c(Cl)c2)cc1Cl [Example 201, 3,5-dichloro-N-(3-chloro-4-methoxyphenyl)-4-(2-chloro-4-nitrophenoxy)benzene-sulfonamide] | + | + | + | + |  | + | 
N=C(NS(=O)(=O)c1cc(Cl)c(Oc2ccc([N+](=O)[O-])cc2Cl)c(Cl)c1)c1cccc([N+](=O)[O-])c1 [Example 210, N-{[3,5-dichloro-4-(2-chloro-4-nitro-phenoxy)phenyl]sulfonyl}-3-nitrobenzene-carboximidamide] | + | + | + | + |  | + | 
O=[N+]([O-])c1ccc(Oc2c(Cl)cc(S(=O)(=O)Nc3cccc4cccnc34)cc2Cl)c(Cl)c1 [Example 219, 3,5-dichloro-4-(2-chloro-4-nitrophenoxy)-N-quinolin-8-ylbenzenesulfonamide] | + | + | + | + |  | + | +
O=[N+]([O-])c1ccc(Oc2c(Cl)cc(S(=O)(=O)Nc3ccccc3C(F)(F)F)cc2Cl)c(Cl)c1 [Example 230, 3,5-dichloro-4-(2-chloro-4-nitrophenoxy)-N-[2-(trifluoromethyl)phenyl]benzene-sulfonamide] | + | + |  |  |  | + | +
Cc1ccc(NS(=O)(=O)c2cc(Cl)c(Oc3ccc([N+](=O)[O-])cc3Cl)c(Cl)c2)c(Cl)c1 [Example 251, 3,5-dichloro-N-(2-chloro-4-methylphenyl)-4-(2-chloro-4-nitrophenoxy)benzene-sulfonamide] | + | + |  |  |  | + | +
O=S(=O)(Nc1ccc(C(F)(F)F)cc1Cl)c1ccc(Oc2ncc(C(F)(F)F)cc2Cl)cc1 [Example 255, N-[2-chloro-4-(trifluoromethyl)phenyl]-4-{[3-chloro-5-(trifluoromethyl)pyridin-2-yl]oxy}benzenesulfonamide] | + | + |  |  |  | + | +
O=[N+]([O-])c1ccc(Oc2c(Cl)cc(S(=O)(=O)Nc3ccccc3-n3cccc3)cc2Cl)c(Cl)c1 [Example 285, 3,5-dichloro-4-(2-chloro-4-nitrophenoxy)-N-[2-(1H-pyRRol-1-yl)phenyl]benzene-sulfonamide] | + | + |  |  |  | + | +

More lines, main results first:

APC Flag 8 pt [1] | SMILES | PAD Assay, A549 6 pt (A549 cells [2]) | Cell Titer-Aqueous, A549 6 pt (A549 cells [3]) | Cell Titer-Aqueous, HELA 6 pt (HeLa cells [4]) | Cell Titer-Aqueous, HCT116 6 pt (HCT116 cells [5]) | PAD Assay, HELA 6 pt (HeLa cells [6]) | PAD Assay, HCT116 6 pt (HCT116 cells [7])
− | N=C(NS(=O)(=O)c1cc(Cl)c(Oc2ccc([N+](=O)[O-])cc2)c(Cl)c1)c1ccncc1 [Example 62, N-{[3,5-dichloro-4-(4-nitrophenoxy)phenyl]sulfonyl}pyridine-4-carboximidamide] | + | + | + | + | + | 
+ | CC1CCCC(C)N1S(=O)(=O)c1cc(Cl)c(Oc2ccc([N+](=O)[O-])cc2Cl)c(Cl)c1 (centres unmarked) [Example 140, 1-{[3,5-dichloro-4-(2-chloro-4-nitrophenoxy)phenyl]sulfonyl}-2,6-dimethylpiperidine] |  | − | − | − |  | 
+ | Cc1cccc(C)c1NS(=O)(=O)c1cc(Cl)c(Oc2ccc([N+](=O)[O-])cc2Cl)c(Cl)c1 [Example 146, 3,5-dichloro-4-(2-chloro-4-nitrophenoxy)-N-(2,6-dimethylphenyl)benzenesulfonamide] | + | + | + | + | + | 
− | COc1cc(NS(=O)(=O)c2cc(Cl)c(Oc3ccc([N+](=O)[O-])cc3Cl)c(Cl)c2)c(OC)cc1Cl [Example 202, 3,5-dichloro-N-(4-chloro-2,5-dimethoxy-phenyl)-4-(2-chloro-4-nitrophenoxy)benzene-sulfonamide] | + | + | + |  | + | 
+ | O=C1Nc2cc(NS(=O)(=O)c3cc(Cl)c(Oc4ccc([N+](=O)[O-])cc4Cl)c(Cl)c3)ccc2OC1(F)F [Example 214, 3,5-dichloro-4-(2-chloro-4-nitrophenoxy)-N-(2,2-difluoro-3-oxo-3,4-dihydro-2H-1,4-benzoxazin-6-yl)benzenesulfonamide] | + | − | + |  | + | 
+ | O=[N+]([O-])c1ccc(Oc2c(Cl)cc(S(=O)(=O)Nc3ccc(F)cc3I)cc2Cl)c(Cl)c1 [Example 226, 3,5-dichloro-4-(2-chloro-4-nitrophenoxy)-N-(4-fluoro-2-iodophenyl)benzenesulfonamide] | + |  |  |  | + | +
